ChEMBL document CHEMBL3739292, “Synthesis and Biological Evaluation of Polar Functionalities Containing Nitrodihydroimidazooxazoles as Anti-TB Agents” (ACS Med Chem Lett, 2015)
≈ marks a conversion by molar mass, not a printed value.

Key:
[1] = test system: Mycobacterium tuberculosis; assay: Antimicrobial activity against Mycobacterium tuberculosis H37Rv ATCC 27294 after 7 days by resazurin microtiter assay; format: functional; details: H37Rv ATCC 27294, 168 h
[2] = Cytotoxicity against human HepG2 cells after 24 hrs by MTT assay; format: cell-based
[3] = test system: Mycobacterium tuberculosis; assay: Antimicrobial activity against nonreplicating Mycobacterium tuberculosis 18b by resazurin microtiter assay; format: functional
[4] = Selectivity index, ratio of CC50 for human HepG2 cells to MIC for Mycobacterium tuberculosis H37Rv ATCC 27294; format: toxicity, cell-based; details: read-out: Selectivity Index
[5] = Aqueous solubility of compound at pH7 for 4 hrs by HPLC analysis; format: physicochemical; details: aqueous solution, pH 7
Mus musculus [6] = assay: Toxicity in Balb/c mouse at 100 mg/kg, po; format: organism-based; details: in vivo
[7] = Tmax in Balb/c mouse at 5 mg/kg, po by LC-MS/MS analysis; format: ADME, organism-based; details: in vivo
[8] = Cmax in Balb/c mouse at 5 mg/kg, po by LC-MS/MS analysis; format: ADME, organism-based; set-up: dose 5 mg/kg, route oral; details: in vivo
Mus musculus [9] = assay: Toxicity in Balb/c mouse at 20 mg/kg, po; format: organism-based; details: in vivo
[10] = Solubility of compound in simulated gastric fluid at pH 1.2 after 4 hrs by HPLC analysis; format: ADME
Mus musculus [11] = assay: Volume of distribution in Balb/c mouse at 5 mg/kg, po by LC-MS/MS analysis; format: ADME, organism-based; details: in vivo
[12] = Solubility of compound in simulated intestinal fluid at pH 6.8 after 4 hrs by HPLC analysis; format: ADME
[13] = test system: Mycobacterium tuberculosis; assay: Antitubercular activity against Mycobacterium tuberculosis H37Rv infected in Balb/c mouse assessed as decrease in bacterial load at 25 mg/kg, po once daily for 5 days (reference value: 1.61 LogCFU ); format: functional
[14] = Metabolic stability in rat liver microsomes assessed as compound remaining after 30 mins by LC-MS/MS analysis; format: ADME; details: read-out: Stability
[15] = (§1) AUC (0 to t) in Balb/c mouse at 5 mg/kg, po by LC-MS/MS analysis; format: ADME, organism-based; details: Balb/c, in vivo
[16] = (§2) Half life in Balb/c mouse at 5 mg/kg, po by LC-MS/MS analysis; format: ADME, organism-based; details: Balb/c, in vivo
[17] = Clearance in Balb/c mouse at 5 mg/kg, po by LC-MS/MS analysis; format: ADME, organism-based; details: in vivo
[18] = Solubility of compound in phosphate buffer solution at pH 7.4 after 4 hrs by HPLC analysis; format: physicochemical
Mus musculus [19] = assay: Toxicity in Balb/c mouse at 25 mg/kg, po once daily for 5 days; format: organism-based; details: in vivo, 120 h
Mus musculus [20] = assay: as §1; format: ADME, organism-based; details: in vivo
Mus musculus [21] = assay: as §2; format: ADME, organism-based; details: in vivo

Row | SMILES | MIC90 [1] | MIC [3] | solubility at 4 h [5] | also measured
1 | C[C@]1(COc2ccc(N3CCC(Oc4ccc(OC(F)(F)F)cc4)CC3)cc2)Cn2cc([N+](=O)[O-])nc2O1 | 0.007 µg/mL (≈ 0.0131 µM) | 0.37 µg/mL (≈ 0.692 µM) | – | CC50 at 24 h [2]: 108 µg/mL (≈ 201 µM)
2 | C[C@]1(COc2ccc(NC(=O)Nc3ccccc3F)cc2)Cn2cc([N+](=O)[O-])nc2O1 | 1.67 µg/mL (≈ 3.91 µM) | – | – | –
3 | C[C@]1(COc2ccc(S(=O)(=O)N3CCC(c4ccccc4)CC3)cc2)Cn2cc([N+](=O)[O-])nc2O1 | 0.67 µg/mL (≈ 1.34 µM) | – | – | –
4 | CCOc1ccc(NC(=O)Nc2ccc(OC[C@@]3(C)Cn4cc([N+](=O)[O-])nc4O3)cc2)cc1 | 0.5 µg/mL (≈ 1.1 µM) | 1 µg/mL (≈ 2.21 µM) | 6.66 µg/mL (≈ 14.7 µM) | selectivity ratio [4]: > 80; CC50 at 24 h [2]: > 20 µg/mL
5 | CC(C)(C)OC(=O)N1CCN(c2ccc(OC[C@@]3(C)Cn4cc([N+](=O)[O-])nc4O3)cc2)CC1 | 6.67 µg/mL (≈ 14.5 µM) | – | – | –
6 | C[C@]1(COc2ccc(S(=O)(=O)N3CCCC3)cc2)Cn2cc([N+](=O)[O-])nc2O1 | 1 µg/mL (≈ 2.45 µM) | – | – | –
7 | C[C@]1(COc2ccc(NC(=O)Nc3ccc(C(F)(F)F)cc3)cc2)Cn2cc([N+](=O)[O-])nc2O1 | 0.5 µg/mL (≈ 1.05 µM) | – | < 1 µg/mL | –
8 | COc1ccc(S(=O)(=O)N2CCN(c3ccc(OC[C@@]4(C)Cn5cc([N+](=O)[O-])nc5O4)cc3)CC2)cc1 | 0.5 µg/mL (≈ 0.944 µM) | – | < 1 µg/mL | –
9 | C[C@]1(COc2ccc(S(=O)(=O)N3CCN(c4cccc(Cl)c4)CC3)cc2)Cn2cc([N+](=O)[O-])nc2O1 | 0.83 µg/mL (≈ 1.55 µM) | – | – | –
10 | CC(C)(C)c1ccc(NC(=O)Nc2ccc(OC[C@@]3(C)Cn4cc([N+](=O)[O-])nc4O3)cc2)cc1 | 0.09 µg/mL (≈ 0.193 µM) | – | < 1 µg/mL | –
11 | CCc1ccc(NC(=S)Nc2ccc(OC[C@@]3(C)Cn4cc([N+](=O)[O-])nc4O3)cc2)cc1 | 1 µg/mL (≈ 2.2 µM) | – | – | –
12 | C[C@]1(COc2ccc(NC(=O)Nc3ccc(Cl)cc3)cc2)Cn2cc([N+](=O)[O-])nc2O1 | 0.25 µg/mL (≈ 0.563 µM) | 4 µg/mL (≈ 9.01 µM) | 6.66 µg/mL (≈ 15 µM) | selectivity ratio [4]: > 80; CC50 at 24 h [2]: > 20 µg/mL
13 | CCOC(=O)N1CCN(S(=O)(=O)c2ccc(OC[C@@]3(C)Cn4cc([N+](=O)[O-])nc4O3)cc2)CC1 | 4 µg/mL (≈ 8.07 µM) | – | – | –
14 | C[C@]1(COc2ccc(NC(=S)Nc3ccc(OC(F)(F)F)cc3)cc2)Cn2cc([N+](=O)[O-])nc2O1 | 0.25 µg/mL (≈ 0.491 µM) | – | < 1 µg/mL | –
15 | C[C@]1(COc2ccc(N3CCN(S(=O)(=O)c4ccccc4)CC3)cc2)Cn2cc([N+](=O)[O-])nc2O1 | 1 µg/mL (≈ 2 µM) | – | – | –
16 | Cc1ccc(S(=O)(=O)N2CCN(c3ccc(OC[C@@]4(C)Cn5cc([N+](=O)[O-])nc5O4)cc3)CC2)cc1 | 0.5 µg/mL (≈ 0.974 µM) | – | < 1 µg/mL | –

Row | SMILES | MIC90 [1] | MIC [3] | solubility at 4 h [5] | also measured
17 | Cc1ccc(NC(=S)Nc2ccc(OC[C@@]3(C)Cn4cc([N+](=O)[O-])nc4O3)cc2)cc1 | 0.83 µg/mL (≈ 1.89 µM) | – | – | –
18 | C[C@]1(COc2ccc(NC(=O)Nc3ccc(OC(F)(F)F)cc3)cc2)Cn2cc([N+](=O)[O-])nc2O1 | 0.67 µg/mL (≈ 1.36 µM) | – | – | –
19 | C[C@]1(COc2ccc(S(=O)(=O)N3CCN(C(=O)c4ccccc4)CC3)cc2)Cn2cc([N+](=O)[O-])nc2O1 | 4 µg/mL (≈ 7.58 µM) | – | – | –
20 | Cc1ccc(NC(=O)Nc2ccc(OC[C@@]3(C)Cn4cc([N+](=O)[O-])nc4O3)cc2)cc1 | 0.21 µg/mL (≈ 0.496 µM) | – | < 1 µg/mL | –
21 | COc1ccc(NC(=O)Nc2ccc(OC[C@@]3(C)Cn4cc([N+](=O)[O-])nc4O3)cc2)cc1 | 2 µg/mL (≈ 4.55 µM) | – | – | –
22 | CC(C)(C)OC(=O)Nc1ccc(OC[C@@]2(C)Cn3cc([N+](=O)[O-])nc3O2)cc1 | 1.34 µg/mL (≈ 3.43 µM) | – | – | –
23 | COc1ccc(NC(=S)Nc2ccc(OC[C@@]3(C)Cn4cc([N+](=O)[O-])nc4O3)cc2)cc1 | 0.5 µg/mL (≈ 1.1 µM) | > 8 µg/mL | 8.66 µg/mL (≈ 19 µM) | selectivity ratio [4]: > 80; CC50 at 24 h [2]: > 20 µg/mL
24 | CCc1ccc(NC(=O)Nc2ccc(OC[C@@]3(C)Cn4cc([N+](=O)[O-])nc4O3)cc2)cc1 | 0.5 µg/mL (≈ 1.14 µM) | – | < 1 µg/mL | –
25 | C[C@]1(COc2ccc(S(=O)(=O)N3CCOCC3)cc2)Cn2cc([N+](=O)[O-])nc2O1 | 0.37 µg/mL (≈ 0.872 µM) | 1.34 µg/mL (≈ 3.16 µM) | 20 µg/mL (≈ 47.1 µM) | Activity (Mus musculus [6]): Non-toxic; Tmax [7]: 0.5 h; Cmax [8]: 640 ng/mL; Activity (Mus musculus [9]): Non-toxic; selectivity ratio [4]: > 40; solubility at 4 h [10]: 20 µg/mL (≈ 47.1 µM); Vd (Mus musculus [11]): 12.97 L/kg; solubility at 4 h [12]: 20 µg/mL (≈ 47.1 µM); Activity [13]: 1.28 log10CFU; remaining at 0.5 h [14]: 99.3%; AUC(0-t) [15]: 879 ng·h/mL; half-life [16]: 1.99 h; CC50 at 24 h [2]: > 20 µg/mL; CL/F [17]: 75.2 mL/min/kg; solubility at 4 h [18]: 20 µg/mL (≈ 47.1 µM); Activity (Mus musculus [19]): Non-toxic
26 | C[C@]1(COc2ccc(N3CCN(S(=O)(=O)c4ccc(C(F)(F)F)cc4)CC3)cc2)Cn2cc([N+](=O)[O-])nc2O1 | 0.25 µg/mL (≈ 0.44 µM) | – | < 1 µg/mL | –
27 | Cc1ccccc1NC(=O)Nc1ccc(OC[C@@]2(C)Cn3cc([N+](=O)[O-])nc3O2)cc1 | 1 µg/mL (≈ 2.36 µM) | – | – | –
28 | C[C@]1(COc2ccc(N3CCN(S(=O)(=O)c4ccc(F)cc4)CC3)cc2)Cn2cc([N+](=O)[O-])nc2O1 | 0.06 µg/mL (≈ 0.116 µM) | > 8 µg/mL | 8.33 µg/mL (≈ 16.1 µM) | selectivity ratio [4]: > 333; CC50 at 24 h [2]: > 20 µg/mL
29 | C[C@]1(COc2ccc(-n3cc(COc4ccc(OC(F)(F)F)cc4)nn3)cc2)Cn2cc([N+](=O)[O-])nc2O1 | 0.12 µg/mL (≈ 0.225 µM) | 4 µg/mL (≈ 7.51 µM) | < 1 µg/mL | Activity (Mus musculus [6]): Non-toxic; Tmax [7]: 2 h; Cmax [8]: 540 ng/mL; Activity (Mus musculus [9]): Non-toxic; selectivity ratio [4]: > 166; solubility at 4 h [10]: < 1 µg/mL; Vd (Mus musculus [11]): 0.377 L/kg; solubility at 4 h [12]: < 1 µg/mL; remaining at 0.5 h [14]: 90.8%; AUCt (Mus musculus [20]): 7428 ng·h/mL; t1/2 (Mus musculus [21]): 4.01 h; CC50 at 24 h [2]: > 20 µg/mL; solubility at 4 h [18]: < 1 µg/mL; Activity (Mus musculus [19]): Non-toxic
30 | C[C@]1(COc2ccc(S(=O)(=O)N3CCCCC3)cc2)Cn2cc([N+](=O)[O-])nc2O1 | 0.5 µg/mL (≈ 1.18 µM) | 10.7 µg/mL (≈ 25.3 µM) | 13.3 µg/mL (≈ 31.6 µM) | selectivity ratio [4]: > 40; CC50 at 24 h [2]: > 20 µg/mL
31 | COc1c(N2CCNC(C)C2)c(F)cc2c(=O)c(C(=O)O)cn(C3CC3)c12 (configuration not stated) [GATIFLOXACIN] | – | 1 µg/mL (≈ 2.66 µM) | – | –
32 | CO[C@H]1/C=C/O[C@@]2(C)Oc3c(C)c(O)c4c(O)c(c(/C=N/N5CCN(C)CC5)c(O)c4c3C2=O)NC(=O)/C(C)=C\C=C\[C@H](C)[C@H](O)[C@@H](C)[C@@H](O)[C@@H](C)[C@H](OC(C)=O)[C@@H]1C [RIFAMPIN] | 0.06 µg/mL (≈ 0.0729 µM) | 2 µg/mL (≈ 2.43 µM) | – | –
